# Assay results as given in patent US6673839B1, “Pharmaceutical compositions with antitumour activity” (Universita' Degli Studi di Catania, priority 1998, dated 2004).
# Counter-ions that a name gives are not always drawn.
# Key:
# [1] = test system: Acute promyelocytic leukemia cell line (HL60); test: Methylene blue assay on stabilized human neoplastic cell lines; assay type: cell-based
# Protocol: (§1) The effects of L-aC on stabilized human neoplastic cell lines were tested using the methylene blue assay.
# (§2) Acute promyelocytic leukemia cell line (HL60) and prostate (Du 145), colon (HT 29) and breast (MCF 7) adenocarcinoma cell lines have been used.
# (§3) Cell suspensions at concentrations of 10^5 cells/ml were prepared.
# (§4) 100 μl of the obtained cell suspension were inoculated on 96 well plates and incubated at 37° for 12 hours, to obtain cell adhesion to the plates. After 12 hours, L-aC was added at the concentrations of 0.2 mg/ml, 2 mg/ml, 20 mg/ml. After 72 hours, the culture medium was removed and 100 μl of 100% ethanol were added for 30 min. Subsequently ethanol was removed and 1% methylene-blue was added for 2 hours. The dye was then removed and the plates were dried before adding 1M HCl.
# (§5) The cytotoxicity percentage was calculated using the following formula:
# (§6) (1−[O^D treated cells/O^D control cells)×100.
# (§7) The optical density was evaluated by Uniskan micro-spectrophotometer with 630 nmwavelength filter.
# [2] = test system: prostate (Du 145) adenocarcinoma cell line; test: as above; assay type: cell-based; settings: prostate carcinoma line
# Protocol: as §1, §2, §3, §4, §5, §6, §7
# Yoshida tumour = test: Survived rats reinoculated with Yoshida tumour; assay type: in vivo, Sprague-Dowley rats
# Protocol: 20 survivors rats previously transplanted with Yoshida tumour and subjected to the treatment on alternate days with 25 mg of L-aC diluted in 5 ml of saline solution […], were reinoculated with the tumour, at the end of the 6 week observation period.
compound,measurement,setting,value
"CC(=O)OC(CC(=O)[O-])C[N+](C)(C)C [L-aC, L-acetylcarnitine hydrochloride]",cytotoxicity,[1],52%
same,cytotoxicity,[2],58%
same,ascites after reinoculation,"Yoshida tumour; 20 survivors (25 mg L-aC alternate days, 4 weeks), until day 14 after reinoculation",no animals showed ascites
same,outcome of repeated reinoculation,Yoshida tumour; second reinoculation,unsuccessfully
